Where two headings read alike, the source gives them in different places.
How the values were obtained:
[1] = Test 9: Toxicity Test (acute oral toxicity, mice); conditions: mouse, in vivo, po
Procedure: A predetermined amount of a solution or suspension of a test compound in corn oil was orally administered to male mice having a body weight of 19 to 23 g (0.2 ml per 10 g of the body weight). After 7 days, the number of killed mice was counted and the influences on the mice were examined.

tobacco cutworm = assay: Test 1: Effect on Tobacco Cutworm (leaf immersion), mortality after 24 hours; format: in vivo; conditions: second-instar larvae, 25° C
Procedure: (§1) To a mixture of 20 parts of the compound of the present invention and 20 parts of Sorpol SM-200 (registered tradename for the product supplied by Toho Chemical Industrial Co., Ltd.) was added 60 parts of xylol, and the mixture was suffciently blended. The obtained emulsifiable concentrate was diluted at a predetermined concentration with distilled water, and the obtained dilution was used.
An emulsifiable concentrate of a test compound prepared according to the method described in Formulation Example 1 was diluted to a concentration of 100 or 20 ppm. Sweet-potato leaves were immersed in the dilution for 10 seconds, air-dried and placed in a plastic cup having a diameter of 10 cm. Then second-instar larvae of tobacco cutworm were set free in the cup. The cup was allowed to stand still in a thermostat chamber maintained at 25° C. After 24 hours, the numbers of killed and living larvae were counted and the mortality was calculated. The obtained result was expressed by an average value obtained from the mortality calculated in three test cups.

[2] = tested on: resistant green rice leafhopper (collected at Nakagawara); assay: Test 3: Effect on Resistant Green Rice Leafhopper (collected at Nakagawara); format: in vivo, Nephotettix cincticeps Uhler (Green rice leafhopper); conditions: Nephotettix cincticeps, 24 h, read-out: Mortality (%), Green Rice Leafhopper Collected at Nakagawara
Procedure: as §1
(§2) Seedlings (having 2 to 3 leaves) of paddy rice were hydroponically cultured in a pot having a diameter of 5 cm. A chemical dilution having a concentration of 100 or 20 ppm, prepared in the same manner as described in Test 1, was applied with a sprayer at a rate of 3 ml per pot. The treated seedlings were air-dried and covered with a metal net cylinder, and female adults of resistant green rice leafhopper (collected at Nakagawara) and sensitive green rice leafhopper (collected at Chigasaki) were set, respectively, free in the pot at a density of 10 adults per pot. After 24 hours, the numbers of killed and living adults were counted and the mortality was calculated. The test was made on three pots and the average value was calculated.

[3] = tested on: sensitive green rice leafhopper (collected at Chigasaki); assay: whole plant or invertebrate; format: in vivo; conditions: Nephotettix cincticeps, read-out: Mortality (%), Green Rice Leafhopper Collected at Chigasaki
Procedure: as §1, §2

[4] = sensitive female adults, 24 hours
[5] = 100 ppm, sensitive female adults, 24 hours

C=C(CC)c1ccc(C(C)(C)COCc2cccc(Oc3ccccc3)c2)cc1 [Compound 110, 3-Phenoxybenzyl 2-[4-(1-buten-2-yl)phenyl]-2-methylpropyl ether]
LD50 at 168 h [1]: > 500 mg/kg

CC(C)(COCc1cccc(Oc2ccccc2)c1)c1ccc(F)c(Cl)c1 [Compound 75]
mortality at 20 ppm (tobacco cutworm): 80%
mortality at 100 ppm (tobacco cutworm): 100%
LD50 at 168 h [1]: > 500 mg/kg

CC(C)c1ccc(C(C)(C)COCc2cccc(Oc3ccccc3)c2)cc1 [Compound 63, 3-Phenoxybenzyl 2-(4-isopropylphenyl)-2-methylpropyl ether]
mortality at 20 ppm [2]: 100%
mortality at 100 ppm [2]: 100%
mortality at 20 ppm [3, 4]: 95%
mortality at 100 ppm [3, 5]: 100%
LD50 at 168 h [1]: > 500 mg/kg

COc1ccc(Oc2cccc(COCC(C)(C)c3ccc(Cl)cc3)c2)cc1 [Compound 34, 3-(4-Methoxyphenoxy)benzyl 2-(4-chlorophenyl)-2-methylpropyl ether]
mortality at 20 ppm [2]: 100%
mortality at 100 ppm [2]: 100%
mortality at 20 ppm [3, 4]: 90%
mortality at 100 ppm [3, 5]: 100%
LD50 at 168 h [1]: > 500 mg/kg

CC(C)(COCc1cccc(Oc2ccccc2)c1)c1ccc(Oc2ccccc2)cc1 [Compound 76, 3-Phenoxybenzyl 2-(4-phenoxyphenyl)-2-methylpropyl ether]
mortality at 20 ppm (tobacco cutworm): 90%
mortality at 100 ppm (tobacco cutworm): 100%
LD50 at 168 h [1]: > 500 mg/kg

CC(C)(COCc1cccc(Oc2ccccc2)c1)c1ccc(OC2CCCCC2)cc1 [Compound 72, 3-Phenoxybenzyl 2-(4-cyclohexyloxyphenyl)-2-methylpropyl ether]
mortality at 20 ppm [2]: 80%
mortality at 100 ppm [2]: 100%
mortality at 20 ppm [3, 4]: 65%
mortality at 100 ppm [3, 5]: 100%
LD50 at 168 h [1]: > 500 mg/kg

Cc1cccc(C(C)(C)COCc2cccc(Oc3ccc(F)cc3)c2)c1 [Compound 36, 3-(4-Fluorophenoxy)benzyl 2-(3-methylphenyl)-2-methylpropyl ether]
mortality at 20 ppm [2]: 90%
mortality at 100 ppm [2]: 100%
mortality at 20 ppm [3, 4]: 70%
mortality at 100 ppm [3, 5]: 95%
LD50 at 168 h [1]: > 500 mg/kg

Cc1cccc(Oc2cccc(COCC(C)(C)c3ccc(Cl)cc3)c2)c1 [Compound 26, 3-(3-Methylphenoxy)benzyl 2-(4-chlorophenyl)-2-methylpropyl ether]
mortality at 20 ppm [2]: 85%
mortality at 100 ppm [2]: 100%
mortality at 20 ppm [3, 4]: 60%
mortality at 100 ppm [3, 5]: 100%
LD50 at 168 h [1]: > 500 mg/kg

CC(C)=Cc1ccc(C(C)(C)COCc2cccc(Oc3ccccc3)c2)cc1 [Compound 91, 3-Phenoxybenzyl 2-[4-(2-methyl-1-propenyl)phenyl]-2-methylpropyl ether]
mortality at 20 ppm [2]: 100%
mortality at 100 ppm [2]: 100%
mortality at 20 ppm [3, 4]: 100%
mortality at 100 ppm [3, 5]: 100%
LD50 at 168 h [1]: > 500 mg/kg

COc1ccc(Oc2cccc(COCC(C)(C)c3ccc(C)cc3)c2)cc1 [Compound 44, 3-(4-methoxyphenoxy)benzyl 2-(4-methylphenyl)-2-methylpropylether]
mortality at 20 ppm [2]: 95%
mortality at 100 ppm [2]: 100%
mortality at 20 ppm [3, 4]: 80%
mortality at 100 ppm [3, 5]: 100%
LD50 at 168 h [1]: > 500 mg/kg

COCc1ccc(C(C)(C)COCc2cccc(Oc3ccccc3)c2)cc1 [Compound 80, 3-Phenoxybenzyl 2-(4-methoxymethylphenyl)-2-methylpropyl ether]
LD50 at 168 h [1]: > 500 mg/kg

CNC(=O)Oc1cccc(C)c1 [Comparative Compound (e), m-tolyl-N-methylcarbamate, reference compound]
mortality at 100 ppm ([3]; 24 h): 80%
LD50 at 168 h [1]: 220 mg/kg

CC(C)(COCc1cccc(Oc2ccccc2)c1)c1ccc(C(=O)OCC(F)(F)F)cc1 [Compound 106, 3-Phenoxybenzyl 2-[4-(2,2,2-trifluoroethoxycarbonyl)-phenyl]-2-methylpropylether]
LD50 at 168 h [1]: > 500 mg/kg

COCOc1ccc(C(C)(C)COCc2cccc(Oc3ccccc3)c2)cc1 [Compound 83, 3-Phenoxybenzyl 2-(4-methoxymethoxyphenyl)-2-methylpropyl ether]
mortality at 20 ppm (tobacco cutworm): 100%
mortality at 100 ppm (tobacco cutworm): 100%
LD50 at 168 h [1]: > 500 mg/kg

COc1ccc(Oc2cccc(COCC(C)(C)c3ccc(OC)cc3)c2)cc1 [Compound 27, 3-(4-Methoxyphenoxy)benzyl 2-(4-methoxyphenyl)-2-methylpropyl ether]
mortality at 20 ppm [2]: 70%
mortality at 100 ppm [2]: 100%
mortality at 20 ppm [3, 4]: 50%
mortality at 100 ppm [3, 5]: 100%
LD50 at 168 h [1]: > 500 mg/kg

C=C(Cl)c1ccc(C(C)(C)COCc2cccc(Oc3ccccc3)c2)cc1 [Compound 102, 3-Phenoxybenzyl 2-[4-(1-chlorovinyl)phenyl]-2-methylpropyl ether]
LD50 at 168 h [1]: > 500 mg/kg

CC(C)(COCc1cccc(Oc2ccccc2)c1)c1ccc(-c2ccccc2)cc1 [Compound 68, 3-Phenoxybenzyl 2-(4-biphenyl)-2-methylpropyl ether]
mortality at 20 ppm [2]: 100%
mortality at 100 ppm [2]: 100%
mortality at 20 ppm [3, 4]: 100%
mortality at 100 ppm [3, 5]: 100%
LD50 at 168 h [1]: > 500 mg/kg

CC(C)(COCc1cccc(Oc2ccccc2)c1)c1ccc(OC(Cl)=C(Cl)Cl)cc1 [Compound 92, 3-Phenoxybenzyl 2-[(1,2,2-trichlorovinyloxy)phenyl]-2-methylpropyl ether]
mortality at 20 ppm (tobacco cutworm): 90%
mortality at 100 ppm (tobacco cutworm): 100%
LD50 at 168 h [1]: > 500 mg/kg

CCOCCOc1ccc(C(C)(C)COCc2cccc(Oc3ccccc3)c2)cc1 [Compound 89, 3-Phenoxybenzyl 2-[4-(2-ethoxyethoxy)phenyl]-2-methylpropyl ether]
LD50 at 168 h [1]: > 500 mg/kg

COc1ccc(Oc2cccc(COCC(C)(C)c3ccc(Br)cc3)c2)cc1 [Compound 40, 3-(4-Methoxyphenoxy)benzyl 2-(4-bromophenyl)-2-methylpropyl ether]
mortality at 20 ppm [2]: 70%
mortality at 100 ppm [2]: 100%
mortality at 20 ppm [3, 4]: 50%
mortality at 100 ppm [3, 5]: 100%
LD50 at 168 h [1]: > 500 mg/kg

CC(C)(COCc1cccc(Oc2ccccc2)c1)c1ccc(C#N)cc1 [Compound 54, 3-Phenoxybenzyl 2-(4-cyanophenyl)-2-methylpropyl ether]
mortality at 20 ppm (tobacco cutworm): 100%
mortality at 100 ppm (tobacco cutworm): 100%
LD50 at 168 h [1]: > 500 mg/kg

CC(C)c1ccc(C(C)(C)COCc2cccc(Oc3ccc(F)cc3)c2)cc1 [Compound 77, 3-(4-Fluorophenoxy)benzyl 2-(4-isopropylphenyl)-2-methylpropyl ether]
mortality at 20 ppm [2]: 85%
mortality at 100 ppm [2]: 100%
mortality at 20 ppm [3, 4]: 70%
mortality at 100 ppm [3, 5]: 100%
LD50 at 168 h [1]: > 500 mg/kg

COc1ccc(C(C)(C)COCc2cccc(Oc3ccc(F)cc3)c2)cc1 [Compound 32, 3-(4-Fluorophenoxy)benzyl 2-(4-methoxyphenyl)-2-methylpropyl ether]
mortality at 20 ppm [2]: 100%
mortality at 100 ppm [2]: 100%
mortality at 20 ppm [3, 4]: 100%
mortality at 100 ppm [3, 5]: 100%
LD50 at 168 h [1]: > 500 mg/kg

CC(C)(COCc1cccc(Oc2ccc(Br)cc2)c1)c1cccc(C(F)(F)F)c1 [Compound 42, 3-(4-Bromophenoxy)benzyl 2-(3-trifluoromethylphenyl)-2-methylpropyl ether]
mortality at 20 ppm [2]: 100%
mortality at 100 ppm [2]: 100%
mortality at 20 ppm [3, 4]: 95%
mortality at 100 ppm [3, 5]: 100%
LD50 at 168 h [1]: > 500 mg/kg

COc1ccc(C(C)(C)COCc2cccc(Oc3ccccc3)c2)cc1OC [Compound 88, 3-Phenoxybenzyl 2-(3,4-dimethoxyphenyl)-2-methylpropyl ether]
mortality at 20 ppm [2]: 80%
mortality at 100 ppm [2]: 100%
mortality at 20 ppm [3, 4]: 60%
mortality at 100 ppm [3, 5]: 100%
LD50 at 168 h [1]: > 500 mg/kg

CC(C)(COCc1cccc(Oc2cccc(Cl)c2)c1)c1ccc(Cl)cc1 [Compound 10, 3-(3-Chlorophenoxy)benzyl 2-(4-chlorophenyl)-2-methylpropyl ether]
mortality at 20 ppm [2]: 100%
mortality at 100 ppm [2]: 100%
mortality at 20 ppm [3, 4]: 100%
mortality at 100 ppm [3, 5]: 100%
LD50 at 168 h [1]: > 500 mg/kg

CC(C)(COCc1cccc(Oc2ccc(F)cc2)c1)c1ccccc1 [Compound 28, 3-(4-Fluorophenoxy)benzyl 2-phenyl-2-methylpropyl ether]
mortality at 20 ppm [2]: 90%
mortality at 100 ppm [2]: 100%
mortality at 20 ppm [3, 4]: 75%
mortality at 100 ppm [3, 5]: 100%
LD50 at 168 h [1]: > 500 mg/kg

C=C(C)c1ccc(C(C)(C)COCc2cccc(Oc3ccccc3)c2)cc1 [Compound 87, 3-Phenoxybenzyl 2-(4-isopropenylphenyl)-2-methylpropyl ether]
LD50 at 168 h [1]: > 500 mg/kg

CC=C(C)c1ccc(C(C)(C)COCc2cccc(Oc3ccccc3)c2)cc1 [Compound 111, 3-Phenoxybenzyl 2-[4-(2-buten-2-yl)phenyl]-2-methylpropyl ether]
LD50 at 168 h [1]: > 500 mg/kg
